The record followed here is patent publication US20100311749A1, “4-BENZOYL-1-SUBSTITUTED-PIPERAZIN-2-ONE DERIVATIVES AS P2X7 MODULATORS” (priority 2007, published 2010).

For the experiment, the target named is T1, human P2X7 receptor (Homo sapiens, UniProt Q99572).
T1 construct: expressed in transfected cells
T1 sequence (Q99572 1-595): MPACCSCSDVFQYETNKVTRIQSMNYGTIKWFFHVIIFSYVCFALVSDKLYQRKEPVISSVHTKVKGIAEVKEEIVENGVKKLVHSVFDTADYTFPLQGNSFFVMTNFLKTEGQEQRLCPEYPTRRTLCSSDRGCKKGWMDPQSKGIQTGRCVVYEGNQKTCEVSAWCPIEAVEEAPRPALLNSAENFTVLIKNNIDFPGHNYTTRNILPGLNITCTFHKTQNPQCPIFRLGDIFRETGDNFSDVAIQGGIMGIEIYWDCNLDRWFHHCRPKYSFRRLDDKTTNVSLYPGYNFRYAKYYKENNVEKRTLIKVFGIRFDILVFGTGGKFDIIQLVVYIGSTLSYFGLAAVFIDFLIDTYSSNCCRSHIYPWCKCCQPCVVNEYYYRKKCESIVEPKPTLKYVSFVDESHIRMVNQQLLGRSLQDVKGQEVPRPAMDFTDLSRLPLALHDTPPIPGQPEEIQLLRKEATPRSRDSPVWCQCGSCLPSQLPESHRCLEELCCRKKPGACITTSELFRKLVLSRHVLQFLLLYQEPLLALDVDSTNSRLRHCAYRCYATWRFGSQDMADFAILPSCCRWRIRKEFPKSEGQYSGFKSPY
The experiment is described as follows: Ethidium Accumulation Assay. The experiment is classed as cell-based. The settings on record: HEK293 cells stably expressing human recombinant P2X7 receptors; 1 mM ATP; values given as 'about'; read-out: pIC50 for human P2X7 receptor antagonist activity (blocking ATP responses) in the Ethidium Accumulation Assay (converted). The method, then: Studies were performed using NaCl assay buffer of the following composition: 140 mM NaCl, 10 mM HEPES [4-(2-hydroxyethyl)-1-piperazine-1-ethanesulfonic acid], 5 mM N-methyl-D-glucamine, 5.6 mM KCl, 10 mM D-glucose, 0.5 mM CaCl2 (pH 7.4).
Human Embryonic Kidney (HEK) 293 cells, stably expressing human recombinant P2X7 receptors, were grown in poly-D-lysine pre-treated 96 well plates for 18-24 hours. […] The cells were washed twice with 350 μl of the assay buffer, before addition of 50 μl of the assay buffer containing the putative P2X7 receptor antagonist compound. (A small amount of dimethyl sulfoxide, for initially dissolving the compound, is optionally used and present in this 50 μl test compound sample.) The cells were then incubated at room temperature (19-21° C.) for 30 min before addition of ATP and ethidium (100 μM final assay concentration). The ATP concentration was chosen to be close to the EC80 for the receptor type and was 1 mM for studies on the human P2X7 receptor. Incubations were continued for 8 or 16 min and were terminated by addition of 25 μl of 1.3M sucrose containing 4 mM of the P2X7 receptor antagonist Reactive Black 5 (Aldrich). […] Antagonist pIC50 values for blocking ATP responses were determined using iterative curve fitting techniques.
Take `CC(C)CN1CCN(C(=O)c2cccc(Cl)c2Cl)CC1=O` [Example 39, 4-[(2,3-dichlorophenyl)carbonyl]-1-(2-methylpropyl)-2-piperazinone]: the IC50 is 2.51 to 100 nM.
For `Cc1ccc(N2CCCC2)cc1N1CCN(C(=O)c2cccc(C(F)(F)F)c2Cl)CC1=O` [Example 73, 4-{[2-chloro-3-(trifluoromethyl)phenyl]carbonyl}-1-[2-methyl-5-(1-pyrrolidinyl)phenyl]-2-piperazinone] the value was 2.51 to 100 nM.
For `O=C(c1cccc(C(F)(F)F)c1Cl)N1CCN(c2ccc(F)cc2)C(=O)C1` [Example 12, 4-{[2-Chloro-3-(trifluoromethyl)phenyl]carbonyl}-1-(4-fluorophenyl)-2-piperazinone], the IC50 is 5.01 to 200 nM.
The figure for `O=C(c1cccc(C(F)(F)F)c1Cl)N1CCN(c2ccc(F)cc2F)C(=O)C1` [Example 21, 4-{[2-chloro-3-(trifluoromethyl)phenyl]carbonyl}-1-(2,4-difluorophenyl)-2-piperazinone] is 2.51 to 100 nM.
The figure for `O=C1CN(C(=O)c2cccc(Cl)c2Cl)CCN1Cc1ccc(F)cc1Cl` [Example 15, 1-[(2-Chloro-4-fluorophenyl)methyl]-4-[(2,3-dichlorophenyl)carbonyl]-2-piperazinone] is 5.01 to 200 nM; for `CC(C)Oc1cc(F)ccc1N1CCN(C(=O)c2cccc(C(F)(F)F)c2Cl)CC1=O` [Example 57, 4-{[2-chloro-3-(trifluoromethyl)phenyl]carbonyl}-1-{4-fluoro-2-[(1-methylethyl)oxy]phenyl}-2-piperazinone] it is 2.51 to 100 nM.
For `O=C(c1cccc(C(F)(F)F)c1Cl)N1CCN(c2cccc(N3CCOCC3)c2Cl)C(=O)C1` [Example 79, 1-[2-chloro-3-(4-morpholinyl)phenyl]-4-{[2-chloro-3-(trifluoromethyl)phenyl]carbonyl}-2-piperazinone] the value was 2.51 to 100 nM.
As for `Cc1cc(F)c(Br)cc1N1CCN(C(=O)c2cccc(C(F)(F)F)c2Cl)CC1=O` [Example 45, 1-(5-bromo-4-fluoro-2-methylphenyl)-4-{[2-chloro-3-(trifluoromethyl)phenyl]carbonyl}-2-piperazinone], the IC50 is 2.51 to 100 nM.
For `Cc1c(Br)cccc1N1CCN(C(=O)c2cccc(C(F)(F)F)c2Cl)CC1=O` [Example 46, 1-(3-bromo-2-methylphenyl)-4-{[2-chloro-3-(trifluoromethyl)phenyl]carbonyl}-2-piperazinone] the value was 2.51 to 100 nM.
The figure for `COc1ccc(I)cc1N1CCN(C(=O)c2cccc(C(F)(F)F)c2Cl)CC1=O` [Example 64, 4-{[2-chloro-3-(trifluoromethyl)phenyl]carbonyl}-1-[5-iodo-2-(methyloxy)phenyl]-2-piperazinone] is 2.51 to 100 nM; for `O=C(c1cccc(Cl)c1Cl)N1CCN(c2cccc(Cl)c2)C(=O)C1` [Example 14, 1-(3-Chlorophenyl)-4-[(2,3-dichlorophenyl)carbonyl]-2-piperazinone] it is 5.01 to 200 nM.
With `O=C(c1ccc(Cl)cc1Cl)N1CCN(c2ccccc2Cl)C(=O)C1` [Example 8, 1-(2-Chlorophenyl)-4-[(2,4-dichlorophenyl)carbonyl]-2-piperazinone], the IC50 was 5.01 to 200 nM.
In the case of `N#Cc1cc(F)ccc1N1CCN(C(=O)c2cccc(Cl)c2Cl)CC1=O` [Example 38, 2-{-4-[(2,3-dichlorophenyl)carbonyl]-2-oxo-1-piperazinyl}-5-fluorobenzonitrile], the IC50 was 2.51 to 100 nM.
In the case of `O=C1CN(C(=O)c2cccc(C(F)(F)F)c2Cl)CCN1CC1CC1` [Example 48, 4-{[2-chloro-3-(trifluoromethyl)phenyl]carbonyl}-1-(cyclopropylmethyl)-2-piperazinone], the IC50 was 2.51 to 100 nM.
The figure for `Cc1ccc(-c2cccc(N3CCN(C(=O)c4cccc(C(F)(F)F)c4Cl)CC3=O)c2C)cn1` [Example 84, 4-{[2-chloro-3-(trifluoromethyl)phenyl]carbonyl}-1-[2-methyl-3-(6-methyl-3-pyridinyl)phenyl]-2-piperazinone] is 2.51 to 100 nM; for `O=C(c1c(Cl)cccc1Cl)N1CCN(c2ccc(F)cc2Cl)C(=O)C1` [Example 31, 1-(2-chloro-4-fluorophenyl)-4-[(2,6-dichlorophenyl)carbonyl]-2-piperazinone] it is 2.51 to 100 nM.
For `Cc1ccc(N2CCOCC2)cc1N1CCN(C(=O)c2cccc(Cl)c2Cl)CC1=O` [Example 54, 4-[(2,3-dichlorophenyl)carbonyl]-1-[2-methyl-5-(4-morpholinyl)phenyl]-2-piperazinone] the value was 2.51 to 100 nM; for `CC(C)Oc1cc(F)ccc1N1CCN(C(=O)c2cccc(Cl)c2Cl)CC1=O` [Example 58, 4-[(2,3-dichlorophenyl)carbonyl]-1-{4-fluoro-2-[(1-methylethyl)oxy]phenyl}-2-piperazinone], 2.51 to 100 nM.
The figure for `O=C(c1cccc(Cl)c1Cl)N1CCN(c2ccc(F)cc2F)C(=O)C1` [Example 19, 4-[(2,3-Dichlorophenyl)carbonyl]-1-(2,4-difluorophenyl)-2-piperazinone] is 5.01 to 200 nM; for `O=C(c1cccc(C(F)(F)F)c1Cl)N1CCN(c2cc(N3CCOCC3)ccc2Cl)C(=O)C1` [Example 78, 1-[2-chloro-5-(4-morpholinyl)phenyl]-4-{[2-chloro-3-(trifluoromethyl)phenyl]-carbonyl}-2-piperazinone] it is 2.51 to 100 nM.
For `O=C(c1cccc(C(F)(F)F)c1F)N1CCN(c2ccc(F)cc2Cl)C(=O)C1` [Example 56, 1-(2-chloro-4-fluorophenyl)-4-{[2-fluoro-3-(trifluoromethyl)phenyl]carbonyl}-2-piperazinone], the IC50 was 2.51 to 100 nM.
The figure for `Cc1c(N2CCCC2)cccc1N1CCN(C(=O)c2cccc(C(F)(F)F)c2Cl)CC1=O` [Example 75, 4-{[2-chloro-3-(trifluoromethyl)phenyl]carbonyl}-1-[2-methyl-3-(1-pyrrolidinyl)phenyl]-2-piperazinone] is 2.51 to 100 nM.
`O=C(c1c(Cl)cc(Cl)cc1Cl)N1CCN(c2cc(N3CCOCC3)ccc2Cl)C(=O)C1` [Example 77, 1-[2-chloro-5-(4-morpholinyl)phenyl]-4-[(2,4,6-trichlorophenyl)carbonyl]-2-piperazinone]: the IC50 is 2.51 to 100 nM.
The figure for `CN1CCN(C(=O)c2cccc(C(F)(F)F)c2Cl)CC1=O` [Example 35, 4-{[2-chloro-3-(trifluoromethyl)phenyl]carbonyl}-1-methyl-2-piperazinon] is 2.51 to 100 nM; for `O=C(c1cccc(Cl)c1Cl)N1CCN(c2ccccc2Cl)C(=O)C1` [Example 6, 1-(2-Dichlorophenyl)-4-[(2,3-dichlorophenyl)carbonyl]-2-piperazinone] it is 5.01 to 200 nM; for `Cc1cc(F)ccc1N1CCN(C(=O)c2cccc(Cl)c2Cl)CC1=O` [Example 28, 4-[(2,3-dichlorophenyl)carbonyl]-1-(4-fluoro-2-methylphenyl)-2-piperazinone] it is 2.51 to 100 nM.
